Results from patent US12590126B2, “Compounds for selective disruption of protein-protein interactions” (SyntheX, Inc., priority 2017, dated 2026).
Like-named read-outs stand apart in the source and are kept apart here. Each block holds one molecule with its values, some of them ahead of it. Where a SMILES comes first, the peptide text is derived from it. [ ]: non-standard residue; d: D form. 2Nal = N[C@@H](Cc1ccc2ccccc2c1)C(=O)O; dNle = CCCC[C@@H](N)C(=O)O; βAla = NCCC(=O)O

How the values were obtained:
[1] = in vitro; settings: human, microsomes
Protocol: (§1) For HLM and MLM stability studies, each compound was incubated with the liver microsome mixture for up to an hour at 37 C in the presence of NADPH.
(§2) After the incubations, the reactions were stopped and the compounds were analyzed according to the method developed for each.

[2] = Mouse pharmacokinetics, IV and IP dosing; format: in vivo, mice
Protocol: The pharmocokinetic parameters in mice by both intravenous (IV) and intraperitoneal (IP) dosing, as well as the serum and microsome stability for each of compound 22, 23, 24, and 25 was determined. Bioanalytical methods were developed for each compound using an LC-MS/MS method with LLOQ>100 ng/ml.
For in-vivo PK work, at least 3 mice were used per timepoint. For each compound, the animals were injected either IV or IP with the compound. IV injections used 1 mg/kg, and IP injections were at 15 mg/kg. Blood was collected at the indicated timepoints and analyzed according to the bioanalytical method developed.

[3] = system: fresh human RBCs; format: cell-based; settings: red cells of human, 1 h, 250
Method in brief: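 Washed RBCs from O+ donors (K2EDTA), diluted to 2% in PBS, incubated with compounds at various concentrations for 1 hr at 37 C. Supernatant absorbance read at 450 or 405 nm after centrifugation; % hemolysis relative to 1% Triton X-100.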

[4] = in vitro; settings: mouse, serum
Protocol: Serum stability data was obtained using the appropriate animal serum, each incubated with the compound for up to two hours at 37 C.

[5] = system: A549 xenograft; assay: A549 xenograft in athymic nude mice, compound 22; format: in vivo; settings: 15 mpk IP every other day
Protocol: The anti-cancer activity of compound 22 was assessed in an A549 xenograft model in a method similar to Example 4. Briefly, A549 cells were implanted into athymic nude female mice. Tumors were allowed to grow to 100 mm^3 before initiation of dosing. Mice were randomly distributed into dosing groups with at least 3 animals per group. Mice were dosed using 15 mpk TP injections every other day.
Tumor volumes and mouse weights were recorded at the indicated timepoints. Terminal tumors were excised and weighed (N=3 for each group).

[6] = system: SSP-25 cells; assay: xCELLigence cell death assay in SSP-25 cells (cellular assay for RAD51 inhibition); format: cell-based; settings: concentration gradient added at 20 hour mark, only values with R^>0.85 shown
[7] = in vitro; settings: mouse, microsomes
Protocol: as §1, §2

[8] = system: A549 cells; assay: Intracellular calcium imaging with Fluo-2-AM; format: cell-based; settings: 30 μM compound, pre-incubation with 2.5 μM Fluo-2-AM
Description: Timestamps for the duration of the experiment are indicated in each panel.

[9] = system: SSP25 cells; assay: xCELLigence cell death assay with intracellular calcium chelators; format: cell-based; settings: relative to compound alone
Protocol: To investigate the hypothesis that peptide treatment of cells causes cell death via increases in intracellular free calcium levels, Compound 1 alone and in combination with two different intracellular calcium chelators (1,2-Bis(2-aminophenoxy)ethane-N,N,N′,N′-tetraacetic acid tetrakis(acetoxymethyl ester) aka “BAPTA-AM”, and ammoniated ruthenium oxychloride aka “ruthenium red”) was tested in an xCELLigence™ cell death assay as in Example 1. The intracellular calcium chelators alone were also evaluated on the cells.

[10] = system: primary fibroblasts; assay: Selective killing, Cytation imaging of primary fibroblasts; format: cell-based; settings: 10 μM, approx. 5 minute time points
Protocol: To assess the specificity of compounds disclosed herein in targeting cancers with overexpression of RAD51, Compound 1 was tested against primary fibroblasts and SSP25 cells (cholangiocarcinoma cell line) (FIG. 5). First, 5,000 cells were incubated in 96-well culture plates overnight. Cells were grown in DMEM or RPMI, respectively, with 10% FBS, and […] was added to a concentration of 10 μM and imaging commenced using a Cytation™ instrument using approximately 5 minute time points. DAPI was used to visualize the nuclei and mitotracker-red was used to observe mitochondria. […] Furthermore, cell morphology was affected within 5 minutes of imaging, and the macrobubble phenotype was stable for further periods of time.

[11] = system: A549 cells; assay: A549 cell growth/death, xCELLigence and microscopy; format: cell-based; settings: xCELLigence, concentration gradient
Protocol: To assess the growth inhibitory properties of compounds disclosed herein, 10 μM of Compound 1 was tested against a PBS mock treatment for growth of A549 cells using microscopy at the indicated timepoints shown in the top right corner of each panel of FIG. 2. […] First, 5,000 A549 cells were plated, and adherence and growth was measured for 20 hours using live measurements of current impedance through the plate using the xCELLigence™ instrument. At the […] mark, a concentration gradient of Compound 1 or a PBS control was added to the A549 cells, which were cultured in 100 μL DMEM media with 10% FBS.

half-life [1]: 365 min | AUC Extr ([2]; 1 mg/kg IV): 19.8% | Vss ([2]; 15 mg/kg IP): 1.19 L/kg | AUC(0-inf) ([2]; in vivo, 1 mg/kg IV): 79.3 ng·h/mL | AUC(0-t) ([2]; in vivo, 1 mg/kg IV): 63.9 ng·h/mL | C0 ([2]; in vivo, 1 mg/kg IV): 514 ng/mL | MRT inf ([2]; in vivo, 1 mg/kg IV): 0.158 h | clearance ([2]; in vivo, 1 mg/kg IV): 222 mL/min/kg | AUC(0-inf) ([2]; in vivo, 15 mg/kg IP): 463 ng·h/mL | MRT inf ([2]; in vivo, 15 mg/kg IP): 48.3 h | half-life ([2]; in vivo, ip, 15 mg/kg, 15 mg/kg IP, read-out: t½ (converted)): 36.3 min | half-life ([2]; in vivo, ip, 15 mg/kg, IP (15 mg/kg), read-out: Half-life Mouse IP): 36.3 min | Vd ([2]; in vivo, iv, 1 mg/kg, 1 mg/kg IV, read-out: Vss): 1.87 L/kg | Vd ([2]; in vivo, iv, 1 mg/kg, 1 mg/kg IV, read-out: Vz): 2.04 L/kg | half-life ([2]; in vivo, iv, 1 mg/kg, 1 mg/kg IV, read-out: t½ (converted)): 7.14 min | half-life ([2]; in vivo, iv, 1 mg/kg, IV (1 mg/kg), read-out: Half-life Mouse IV): 7.16 min | half-life [4]: > 500 min | half-life [7]: > 500 min
Compound: CCCC[C@@H](NC(=O)[C@@H](CC(C)C)NC(C)=O)C(=O)N[C@H](CCCNC(=N)N)C(=O)NCCC(=O)N[C@@H](C(=O)N[C@H](CCCNC(=N)N)C(=O)N[C@H](CC(C)C)C(=O)N[C@H](CCCNC(=N)N)C(=O)N[C@@H](C(=O)NCCC(=O)N[C@H](CC(C)C)C(=O)N[C@H](CCCNC(=N)N)C(=O)N[C@H](CCCCN)C(=O)N[C@H](CCCNC(=N)N)C(=O)N[C@H](CCCNC(=N)N)C(=O)N[C@H](CCCNC(=N)N)C(=O)N[C@H](CCCNC(=N)N)C(=O)N[C@H](CCCNC(=N)N)C(=O)NCC(=O)N[C@@H](Cc1ccc2ccccc2c1)C(N)=O)C(C)C)C(C)C [Compound 22, Ac-l{d-norLeucine}r[beta-ALA]vrlrv[beta-ALA]lrkrrrrrGΦ-NH2] (Ac-[dL][dNle][dR][βAla][dV][dR][dL][dR][dV][βAla][dL][dR][dK][dR][dR][dR][dR][dR]G[2Nal]-NH2)
% Hemolysis (250 uM) [3]: 5% | tumor growth [5]: effective to reduce tumor growth | IC50 [6]: 18 µM

Compound: CSCC[C@@H](NC(=O)[C@@H](CC(C)C)NC(C)=O)C(=O)N[C@H](CCCNC(=N)N)C(=O)N[C@H](CO)C(=O)N[C@H](CCC(N)=O)C(=O)N[C@H](CCCNC(=N)N)C(=O)N[C@H](CC(C)C)C(=O)N[C@H](CCCNC(=N)N)C(=O)N[C@H](CCC(N)=O)C(=O)NCC(=O)N[C@H](CC(C)C)C(=O)N[C@H](CCCNC(=N)N)C(=O)N[C@H](CCCCN)C(=O)N[C@H](CCCNC(=N)N)C(=O)N[C@H](CCCNC(=N)N)C(=O)N[C@H](CCCNC(=N)N)C(=O)N[C@H](CCCNC(=N)N)C(=O)N[C@H](CCCNC(=N)N)C(=O)N[C@H](CCCNC(=N)N)C(=O)N[C@H](CCCNC(=N)N)C(N)=O [Compound 2, Ac-lmrsqrlrqGlrkrrrrrrr-NH2]
intracellular calcium (Fluo-2 dye) [8]: shows accumulation in response to treatment | % Hemolysis (250 uM) [3]: 1% | cell death with added calcium chelator BAPTA-AM ([9]; 10 μM compound + 10 μM BAPTA-AM): able to counteract the cell-death inducing effects | cell death with added calcium chelator ruthenium red ([9]; 10 μM compound + 40 μM Ruthenium red): able to counteract the cell-death inducing effects | IC50 [6]: 4220 µM | cell morphology / cell death in primary fibroblasts [10]: little cell death is generated in the primary fibroblast cells compared to the SSP25 cells | effect on growth / cell death of A549 cells [11]: rapid cell death (decrease in cell index)
